Measured values reported in US20250195536A1, “BICYCLOOCTANE KRAS INHIBITORS” (Incyte Corporation, priority 2023, published 2025).

How the values were obtained:
KRAS G12V = KRAS G12V (Homo sapiens, UniProt P01116, G12V); experiment: GDP-GTP exchange assay (KRAS G12V); format: biochemical; conditions: bodipy-GDP/GppNHp exchange with SOS1; 3 h incubation after GppNHp-SOS1;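 also: one dagger IC50 up to 100 nM and two daggers above 100 nM up to 1 μM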
Summary of the method: (§1)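 Bodipy-GDP-loaded KRAS (2.5 nM final) was pre-incubated 4 h at r.t. with inhibitor in Hepes pH 7.5 buffer with MgCl2, then exchange started with GppNHp (500 μM) and SOS1 (150 nM) final. Fluorescence (ex 485/em 520 nm) read after 2 h for G12D, 3 h for G12V; IC50 from four-parameter logistic fit.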

[1] = Caco2 assay (permeability, Papp A-B); format: in vitro ADME; conditions: human, Caco-2, absorptive direction (A-B), 50 μM test compound, 4% BSA in receiver
Summary of the method: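 Caco-2 monolayers, 22-25 days on Transwells, TEER 300 Ω·cm^2, dosed apically with 50 μM compound in HBSS; basolateral HBSS with 4% BSA. 120 min at 37 °C, samples quantified by LCMS; Papp (A-B) from receiver-side cumulative flux slope, donor volume, surface area and initial donor amount.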

KRAS G12D = KRAS G12D (Homo sapiens, UniProt P01116, G12D); experiment: GDP-GTP exchange assay (KRAS G12D); format: biochemical; conditions: bodipy-GDP/GppNHp exchange with SOS1; 4 h pre-incubation, 2 h reaction;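 also: one dagger IC50 up to 100 nM and two daggers above 100 nM up to 1 μM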
KRAS G12D, sequence (P01116 1-188 isoform P01116-2 G12D): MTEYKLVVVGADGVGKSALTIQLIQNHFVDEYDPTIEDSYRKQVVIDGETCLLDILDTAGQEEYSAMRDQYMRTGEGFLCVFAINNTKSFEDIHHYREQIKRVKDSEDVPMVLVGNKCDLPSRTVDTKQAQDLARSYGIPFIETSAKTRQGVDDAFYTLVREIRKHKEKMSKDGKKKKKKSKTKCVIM
Summary of the method: as §1

KRAS G12V, sequence (P01116 1-188 isoform P01116-2 G12V): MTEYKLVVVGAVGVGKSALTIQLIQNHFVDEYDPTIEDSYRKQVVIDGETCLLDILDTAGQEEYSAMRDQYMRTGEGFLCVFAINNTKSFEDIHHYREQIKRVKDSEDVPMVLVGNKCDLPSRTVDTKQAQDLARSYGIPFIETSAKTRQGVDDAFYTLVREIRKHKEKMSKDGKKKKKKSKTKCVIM

| SMILES | G12V_exchange (KRAS_G12V exchange assay IC50) (KRAS G12V) | Papp A→B at 120 min, 50 μM [1] [×10⁻⁶ cm/s] | G12D_exchange (KRAS_G12D exchange assay IC50) (KRAS G12D) |
| --- | --- | --- | --- |
| Cc1nc2c(F)c(-c3cccc(Cl)c3Cl)c(CCC#N)cc2c2c1cc([C@H]1[C@H]3C[C@H](CN(c4ccn5cc(C(F)(F)F)nc5c4)C3)N1C(=O)C1CC1)n2[C@H]1[C@H]2CN[C@@H]1C2 (atropisomer, axis not shown; (Ra)) [Example 70, 3-((Ra)-1-((1R,4R,5S)-2-azabicyclo[2.1.1]hexan-5-yl)-2-((1S,5R,7R)-6-(cyclopropanecarbonyl)-3-(2-(trifluoromethyl)imidazo[1,2-a]pyridin-7-yl)-3,6-diazabicyclo[3.2.1]octan-7-yl)-7-(2,3-dichlorophenyl)-6-fluoro-4-methyl-1H-pyrrolo[3,2-c]quinolin-8-yl)propanenitrile] | † | ≤ 0.5 | † |
| Cc1nc2c(F)c(-c3cccc(Cl)c3Cl)c(CCC#N)cc2c2c1cc([C@H]1[C@H]3C[C@H](CN(c4ncc(OC(F)F)cn4)C3)N1C(=O)C1CC1)n2[C@H]1[C@H]2CN[C@@H]1C2 (atropisomer, axis not shown; (Ra)) [Example 45, 3-((Ra)-1-((1R,4R,5S)-2-azabicyclo[2.1.1]hexan-5-yl)-2-((1S,5R,7R)-6-(cyclopropanecarbonyl)-3-(5-(difluoromethoxy)pyrimidin-2-yl)-3,6-diazabicyclo[3.2.1]octan-7-yl)-7-(2,3-dichlorophenyl)-6-fluoro-4-methyl-1H-pyrrolo[3,2-c]quinolin-8-yl)propanenitrile] | † | ≤ 0.5 | † |
| Cc1nc2c(F)c(-c3cccc(Cl)c3Cl)c(CCC#N)cc2c2c1cc([C@H]1[C@H]3C[C@H](CN(c4ccc(C(F)(F)F)nn4)C3)N1C(=O)C1CC1)n2[C@H]1[C@H]2CN[C@@H]1C2 (atropisomer, axis not shown; (Ra)) [Example 34, 3-((Ra)-1-((1R,4R,5S)-2-azabicyclo[2.1.1]hexan-5-yl)-2-((1S,5R,7R)-6-(cyclopropanecarbonyl)-3-(6-(trifluoromethyl)pyridazin-3-yl)-3,6-diazabicyclo[3.2.1]octan-7-yl)-7-(2,3-dichlorophenyl)-6-fluoro-4-methyl-1H-pyrrolo[3,2-c]quinolin-8-yl)propanenitrile] | † | ≤ 0.5 | † |
| Cc1nc2c(F)c(-c3cccc(Cl)c3Cl)c(CCC#N)cc2c2c1cc([C@H]1C[C@H]3C[C@H](CN3C(=O)c3ccccc3)N1C(=O)C1CC1)n2[C@H]1[C@H]2CN[C@@H]1C2 (atropisomer, axis not shown; (Ra)) [Example 119, 3-((Ra)-2-((1R,3R,5R)-6-Benzoyl-2-(cyclopropanecarbonyl)-2,6-diazabicyclo[3.2.1]octan-3-yl)-1-((1R,4R,5S)-2-azabicyclo[2.1.1]hexan-5-yl)-7-(2,3-dichlorophenyl)-6-fluoro-4-methyl-1H-pyrrolo[3,2-c]quinolin-8-yl)propanenitrile] | † | ≤ 0.5 | † |
| Cc1nc2c(F)c(-c3cccc(Cl)c3Cl)c(CCC#N)cc2c2c1cc([C@H]1[C@H]3C[C@H](CN(c4ccc(OC(F)F)cc4)C3)N1C(=O)C1CC1)n2[C@H]1[C@H]2CN[C@@H]1C2 (atropisomer, axis not shown; (Ra)) [Example 25, 3-((Ra)-1-((1R,4R,5S)-2-azabicyclo[2.1.1]hexan-5-yl)-2-((1S,5R,7R)-6-(cyclopropanecarbonyl)-3-(4-(difluoromethoxy)phenyl)-3,6-diazabicyclo[3.2.1]octan-7-yl)-7-(2,3-dichlorophenyl)-6-fluoro-4-methyl-1H-pyrrolo[3,2-c]quinolin-8-yl)propanenitrile] | † | ≤ 0.5 | †† |
| Cc1nc2c(F)c(-c3cccc(Cl)c3Cl)c(CCC#N)cc2c2c1cc([C@H]1[C@H]3C[C@H](CN(c4nc(C(F)(F)F)cs4)C3)N1C(=O)C1CC1)n2[C@H]1[C@H]2CN[C@@H]1C2 (atropisomer, axis not shown; (Ra)) [Example 94, 3-((Ra)-1-((1R,4R,5S)-2-azabicyclo[2.1.1]hexan-5-yl)-2-((1S,5R,7R)-6-(cyclopropanecarbonyl)-3-(4-(trifluoromethyl)thiazol-2-yl)-3,6-diazabicyclo[3.2.1]octan-7-yl)-7-(2,3-dichlorophenyl)-6-fluoro-4-methyl-1H-pyrrolo[3,2-c]quinolin-8-yl)propanenitrile] | † | ≤ 0.5 | † |

The remaining lines, values ahead:

| G12V_exchange (KRAS_G12V exchange assay IC50) (KRAS G12V) | Papp A→B at 120 min, 50 μM [1] [×10⁻⁶ cm/s] | G12D_exchange (KRAS_G12D exchange assay IC50) (KRAS G12D) | SMILES |
| --- | --- | --- | --- |
| † | ≤ 0.5 | † | Cc1nc2c(F)c(-c3cccc(Cl)c3Cl)c(CCC#N)cc2c2c1cc([C@H]1[C@H]3C[C@H](CN(c4cccnc4)C3)N1C(=O)C1CC1)n2[C@H]1[C@H]2CN[C@@H]1C2 (atropisomer, axis not shown; (Ra)) [Example 9, 3-((Ra)-1-((1R,4R,5S)-2-azabicyclo[2.1.1]hexan-5-yl)-2-((1S,5R,7R)-6-(cyclopropanecarbonyl)-3-(pyridin-3-yl)-3,6-diazabicyclo[3.2.1]octan-7-yl)-7-(2,3-dichlorophenyl)-6-fluoro-4-methyl-1H-pyrrolo[3,2-c]quinolin-8-yl)propanenitrile] |
| † | ≤ 0.5 | † | COCCOc1cc(N2C[C@@H]3C[C@H](C2)N(C(=O)C2CC2)[C@H]3c2cc3c(C)nc4c(F)c(-c5cccc(Cl)c5Cl)c(CCC#N)cc4c3n2[C@H]2[C@H]3CN[C@@H]2C3)ccn1 (atropisomer, axis not shown; (Ra)) [Example 83, 3-((Ra)-1-((1R,4R,5S)-2-azabicyclo[2.1.1]hexan-5-yl)-2-((1S,5R,7R)-6-(cyclopropanecarbonyl)-3-(2-(2-methoxyethoxy)pyridin-4-yl)-3,6-diazabicyclo[3.2.1]octan-7-yl)-7-(2,3-dichlorophenyl)-6-fluoro-4-methyl-1H-pyrrolo[3,2-c]quinolin-8-yl)propanenitrile] |
| † | ≤ 0.5 | † | Cc1nc2c(F)c(-c3cccc(Cl)c3Cl)c(CCC#N)cc2c2c1cc([C@H]1[C@H]3C[C@H](CN(c4nccc(C(F)F)n4)C3)N1C(=O)C1CC1)n2[C@H]1[C@H]2CN[C@@H]1C2 (atropisomer, axis not shown; (Ra)) [Example 87, 3-((Ra)-1-((1R,4R,5S)-2-azabicyclo[2.1.1]hexan-5-yl)-2-((1S,5R,7R)-6-(cyclopropanecarbonyl)-3-(4-(difluoromethyl)pyrimidin-2-yl)-3,6-diazabicyclo[3.2.1]octan-7-yl)-7-(2,3-dichlorophenyl)-6-fluoro-4-methyl-1H-pyrrolo[3,2-c]quinolin-8-yl)propanenitrile] |
| † | ≤ 0.5 | †† | Cc1nc2c(F)c(-c3cccc(Cl)c3Cl)c(CCC#N)cc2c2c1cc([C@H]1[C@H]3C[C@H](CN(c4cccc(Cl)c4)C3)N1C(=O)C1CC1)n2[C@H]1[C@H]2CN[C@@H]1C2 (atropisomer, axis not shown; (Ra)) [Example 19, 3-((Ra)-1-((1R,4R,5S)-2-azabicyclo[2.1.1]hexan-5-yl)-2-((1S,5R,7R)-3-(3-chlorophenyl)-6-(cyclopropanecarbonyl)-3,6-diazabicyclo[3.2.1]octan-7-yl)-7-(2,3-dichlorophenyl)-6-fluoro-4-methyl-1H-pyrrolo[3,2-c]quinolin-8-yl)propanenitrile] |
| † | 0.5 to 1 | † | Cc1cnc(N2C[C@@H]3C[C@H](C2)N(C(=O)C2CC2)[C@H]3c2cc3c(C)nc4c(F)c(-c5cccc(Cl)c5Cl)c(CCC#N)cc4c3n2[C@H]2[C@H]3CN[C@@H]2C3)c(F)c1 (atropisomer, axis not shown; (Ra)) [Example 53, 3-((Ra)-1-((1R,4R,5S)-2-azabicyclo[2.1.1]hexan-5-yl)-2-((1S,5R,7R)-6-(cyclopropanecarbonyl)-3-(3-fluoro-5-methylpyridin-2-yl)-3,6-diazabicyclo[3.2.1]octan-7-yl)-7-(2,3-dichlorophenyl)-6-fluoro-4-methyl-1H-pyrrolo[3,2-c]quinolin-8-yl)propanenitrile] |
| † | ≤ 0.5 | † | Cc1cc(N2C[C@@H]3C[C@H](C2)N(C(=O)C2CC2)[C@H]3c2cc3c(C)nc4c(F)c(-c5cccc(Cl)c5Cl)c(CCC#N)cc4c3n2[C@H]2[C@H]3CN[C@@H]2C3)cc(C(F)F)n1 (atropisomer, axis not shown; (Ra)) [Example 84, 3-((Ra)-1-((1R,4R,5S)-2-azabicyclo[2.1.1]hexan-5-yl)-2-((1S,5R,7R)-6-(cyclopropanecarbonyl)-3-(2-(difluoromethyl)-6-methylpyridin-4-yl)-3,6-diazabicyclo[3.2.1]octan-7-yl)-7-(2,3-dichlorophenyl)-6-fluoro-4-methyl-1H-pyrrolo[3,2-c]quinolin-8-yl)propanenitrile] |
